Laboratory results as given in patent US20030068615A1, “Polypeptides that bind HIV gp120 and related nucleic acids, antibodies, compositions, and methods of use” (priority 1999, published 2003).
Read-outs that look alike come from different tables or passages of the source.

Molecular target: HIV-1LAI envelope gp120 (Human immunodeficiency virus type 1 group M subtype B, UniProt P03377)
Type: binding
Conditions: for Binding Results For Window Length (counts bound-background), 9: 9-mer starting at the first residue of the printed sequence; for Binding Results For Window Length (counts bound-background), 12: 12-mer starting at the first residue of the printed sequence; for Binding Results For Window Length (counts bound-background), 15: 15-mer starting at the first residue of the printed sequence; for Relative % of Control: mean of two syntheses and binding experiments ± average deviation, wild-type = 100%; for percentage of binding of mutant polypeptide compared to wild-type polypeptide, gp120: CCR5 alanine mutant peptide; for percentage of binding of mutant polypeptide compared to wild-type polypeptide, gp120 / Counts per 20′ Average-background: radiolabeled HIV-1LAI gp120; for Counts per 20′ Average-background: CCR5 18-mer scan; for number of radioactive decays (counts) counted: human CD4 21-mer scan, empty control 2075
[1] = STRL33 18-mer scan, background subtracted, first of two count columns
[2] = STRL33 18-mer scan, background subtracted, second of two count columns
[3] = STRL33 amino terminus, background subtracted
[4] = CXCR4 18-mer scan, background subtracted, empty control 0
[5] = CXCR4 18-mer scan, empty control 412
[6] = Panel D, 9-mers and 12-mers of CD4, empty control […]
[7] = Panel B, 15-mers and 18-mers of CD4, empty control 575

MAEHDYHEDYGFSSFNDS [STRL33 segment 1-18]
radioactive counts recorded in twenty minutes [1]: 1178.5 counts | radioactive counts recorded in twenty minutes [2]: 1320.5 counts | Binding Results For Window Length (counts bound-background), 9 [3]: 160 counts | Binding Results For Window Length (counts bound-background), 12 [3]: 625 counts | Binding Results For Window Length (counts bound-background), 15 [3]: 1239 counts | Binding Results For Window Length (counts bound-background), 18 (STRL33 amino terminus, 18-mer starting at the first residue of the printed sequence, background subtracted): 1386 counts

MAGISIYTSDNYTEEMGS [CXCR4 (1-18) variant E2A]
Relative % of Control (CXCR4 (1-18) alanine variants): 36 ± 0.3%

MAVFLLTQMPFNLMKFIR [STRL33 segment 237-254]
radioactive counts recorded in twenty minutes [1]: 2263.5 counts | radioactive counts recorded in twenty minutes [2]: 2842.5 counts

MAYQVSSPIYDINYYTSE [CCR5 (1-18) variant D2A]
Relative % of Control (CCR5 (1-18) alanine variants): 125 ± 8%

MCKSLLGIYTINFYTSML
radioactive counts recorded in twenty minutes [1]: 1505.5 counts | radioactive counts recorded in twenty minutes [2]: 1283.5 counts

MDAQVSSPIYDINYYTSE [CCR5 (1-18) variant Y3A]
Relative % of Control (CCR5 (1-18) alanine variants): 51 ± 2%

MDYAVSSPIYDINYYTSE [CCR5 (1-18) variant Q4A]
Relative % of Control (CCR5 (1-18) alanine variants): 104 ± 7% | percentage of binding of mutant polypeptide compared to wild-type polypeptide, gp120: 104%

MDYQASSPIYDINYYTSE [CCR5 (1-18) variant V5A]
Relative % of Control (CCR5 (1-18) alanine variants): 82 ± 3%

MDYQVASPIYDINYYTSE
Relative % of Control (CCR5 (1-18) alanine variants): 124 ± 3%

MDYQVSAPIYDINYYTSE
Relative % of Control (CCR5 (1-18) alanine variants): 56 ± 2%

MDYQVSSAIYDINYYTSE
Relative % of Control (CCR5 (1-18) alanine variants): 157 ± 2%

MDYQVSSPAYDINYYTSE [CCR5 (1-18) variant printed 19A]
Relative % of Control (CCR5 (1-18) alanine variants): 24 ± 7%

MDYQVSSPIADINYYTSE [CCR5 (1-18) variant Y10A]
Relative % of Control (CCR5 (1-18) alanine variants): 19 ± 6% | percentage of binding of mutant polypeptide compared to wild-type polypeptide, gp120: 19.2%

MDYQVSSPIYAINYYTSE [CCR5 (1-18) variant D11A]
Relative % of Control (CCR5 (1-18) alanine variants): 63 ± 22% | percentage of binding of mutant polypeptide compared to wild-type polypeptide, gp120: 62.8%

MDYQVSSPIYDANYYTSE
Relative % of Control (CCR5 (1-18) alanine variants): 14 ± 1%

MDYQVSSPIYDIAYYTSE
Relative % of Control (CCR5 (1-18) alanine variants): 253 ± 19%

MDYQVSSPIYDINAYTSE [CCR5 (1-18) variant Y14A]
Relative % of Control (CCR5 (1-18) alanine variants): 15 ± 0.3% | percentage of binding of mutant polypeptide compared to wild-type polypeptide, gp120: 14.6%

MDYQVSSPIYDINYATSE [CCR5 (1-18) variant Y15A]
Relative % of Control (CCR5 (1-18) alanine variants): 21 ± 5% | percentage of binding of mutant polypeptide compared to wild-type polypeptide, gp120: 21%

MDYQVSSPIYDINYYASE
Relative % of Control (CCR5 (1-18) alanine variants): 78 ± 34%

MDYQVSSPIYDINYYTAE
Relative % of Control (CCR5 (1-18) alanine variants): 64 ± 6%

MDYQVSSPIYDINYYTSA [CCR5 (1-18) variant E18A]
Relative % of Control (CCR5 (1-18) alanine variants): 4 ± 2% | percentage of binding of mutant polypeptide compared to wild-type polypeptide, gp120: 4.1%

MDYQVSSPIYDINYYTSE
Counts per 20′ Average-background (background subtracted): 735 counts per 20′ | Relative % of Control (CCR5 (1-18) alanine variants): 100%

MEAISIYTSDNYTEEMGS
Relative % of Control (CXCR4 (1-18) alanine variants): 101 ± 3%

MEGASIYTSDNYTEEMGS
Relative % of Control (CXCR4 (1-18) alanine variants): 6 ± 0.3%

MEGIAIYTSDNYTEEMGS [CXCR4 (1-18) variant S5A]
Relative % of Control (CXCR4 (1-18) alanine variants): 133 ± 5%

MEGISAYTSDNYTEEMGS
Relative % of Control (CXCR4 (1-18) alanine variants): 2 ± 1%

MEGISIATSDNYTEEMGS
Relative % of Control (CXCR4 (1-18) alanine variants): 7 ± 0.4%

MEGISIYASDNYTEEDGS
Relative % of Control (CXCR4 (1-18) alanine variants): 97 ± 10%

MEGISIYTADNYTEEMGS
Relative % of Control (CXCR4 (1-18) alanine variants): 70 ± 4%

MEGISIYTSANYTEEMGS
Relative % of Control (CXCR4 (1-18) alanine variants): 71 ± 8%

MEGISIYTSDAYTEEMGS
Relative % of Control (CXCR4 (1-18) alanine variants): 38 ± 0.4%

MEGISIYTSDNATEEMGS
Relative % of Control (CXCR4 (1-18) alanine variants): 28 ± 2%

MEGISIYTSDNYAEEMGS
Relative % of Control (CXCR4 (1-18) alanine variants): 70 ± 6%

MEGISIYTSDNYTAEMGS
Relative % of Control (CXCR4 (1-18) alanine variants): 72 ± 1%

MEGISIYTSDNYTEAMGS
Relative % of Control (CXCR4 (1-18) alanine variants): 56 ± 7%

MEGISIYTSDNYTEEAGS
Relative % of Control (CXCR4 (1-18) alanine variants): 88 ± 4%

MEGISIYTSDNYTEEMAS
Relative % of Control (CXCR4 (1-18) alanine variants): 68 ± 8%

MEGISIYTSDNYTEEMGA
Relative % of Control (CXCR4 (1-18) alanine variants): 79 ± 1%

MEGISIYTSDNYTEEMGS
radioactive counts recorded in twenty minutes [4]: 2591 counts | radioactive counts recorded in twenty minutes [5]: 3003 counts | Relative % of Control (CXCR4 (1-18) alanine variants): 100%

MIVYFLFWAPYNIVLLLN [CCR5 segment 241-]
Counts per 20′ Average-background (background subtracted): 214 counts per 20′

MLILTCITVDRFIVVVKA
radioactive counts recorded in twenty minutes [1]: 298.5 counts | radioactive counts recorded in twenty minutes [2]: 228.5 counts

MLVILILINCKRLKSMTD [CCR5 segment 49-66]
Counts per 20′ Average-background (background subtracted): 84 counts per 20′

MNRGVPFRRLLLVLQLALLPA [human CD4 1-21]
number of radioactive decays (counts) counted: 3587 counts

MPFNLMKFIRSTHWEYYA [STRL33 segment 245-262]
radioactive counts recorded in twenty minutes [1]: 2171.5 counts | radioactive counts recorded in twenty minutes [2]: 2182.5 counts

MTWGKVTSLLIWVISLLV
radioactive counts recorded in twenty minutes [1]: −0.5 counts | radioactive counts recorded in twenty minutes [2]: −26.5 counts

MVGLILPGIVILSCYCII [CXCR4 segment 205-222]
radioactive counts recorded in twenty minutes [4]: 167 counts | radioactive counts recorded in twenty minutes [5]: 579 counts

MYLVVFVCGLVGNSLVLV [STRL33 segment 37-54]
radioactive counts recorded in twenty minutes [1]: 168.5 counts | radioactive counts recorded in twenty minutes [2]: 235.5 counts

NANFNKIFLPTIYSIIFL [CXCR4 segment 33-50]
radioactive counts recorded in twenty minutes [4]: 173 counts | radioactive counts recorded in twenty minutes [5]: 585 counts

NCKRLKSMTDIYLLNLAI [CCR5 segment 57-74]
Counts per 20′ Average-background (background subtracted): 25 counts per 20′

NDSSQEEHQAFLQFS
Binding Results For Window Length (counts bound-background), 9 [3]: 180 counts | Binding Results For Window Length (counts bound-background), 12 [3]: 497 counts | Binding Results For Window Length (counts bound-background), 15 [3]: 6160 counts

NFPLIIKNL
COUNTS of radiolabeled gp120 retained [6]: 561 counts

NFPLIIKNLKIE
COUNTS of radiolabeled gp120 retained [6]: 647 counts

NFPLIIKNLKIEDSD
COUNTS of radiolabeled gp120 retained [7]: 654 counts

NFPLIIKNLKIEDSDTYI
COUNTS of radiolabeled gp120 retained [7]: 627 counts

NKEAKVSKREKAVWVLNPEAG
number of radioactive decays (counts) counted: 1735 counts

NKIFLPTIYSIIFLTGIV [CXCR4 segment 37-54]
radioactive counts recorded in twenty minutes [4]: 138 counts | radioactive counts recorded in twenty minutes [5]: 550 counts

NLKIEDSDT
COUNTS of radiolabeled gp120 retained [6]: 512 counts

NLKIEDSDTYIC
COUNTS of radiolabeled gp120 retained [6]: 639 counts

NLKIEDSDTYICEVE
COUNTS of radiolabeled gp120 retained [7]: 1160 counts
